Values after ≈ are worked out from the molar mass of the structure shown. Counter-ions that a name gives are not always drawn. Like-named read-outs stand apart in the source and are kept apart here.
Experiments:
Streptococcus pneumoniae = test: Bacterial susceptibility testing in liquid media (MIC), S. pneumo; assay type: cell-based; conditions: MIC: lowest concentration reducing growth by 80% or more; 37° C., 24 hours
Procedure: (§1) Compounds were tested for antimicrobial activity by susceptibility testing in liquid media in a 96 well format. Compounds were dissolved in dimethylsulfoxide and tested in 10 doubling dilutions in the susceptibility assays. The organisms used in the assay were grown overnight on suitable agar media and then suspended in a liquid medium appropriate for the growth of the organism. The suspension was a 0.5 McFarland and a further 1 in 10 dilution was made into the same liquid medium to prepare the final organism suspension in 100 μL. Plates were incubated under appropriate conditions at 37° C. for 24 hours prior to reading. The Minimum Inhibitory Concentration (MIC) was determined as the lowest drug concentration able to reduce growth by 80% or more.
(§2) Compounds were evaluated against a panel of Gram-positive species, including Staphylococcus aureus, Streptococcus pneumoniae, Streptococcus pyogenes, and Enterococcus faecium. In addition, compounds were evaluated against a panel of Gram-negative species including Haemophilus influenzae, Escherichia coli and Moraxella catarrhalis.

Escherichia coli = test: Bacterial susceptibility testing in liquid media (MIC), E. coli; assay type: cell-based; conditions: lowest concentration reducing growth by 80% or more, 37° C., 24 hours
Procedure: as §1, §2

GyrB ATPase = GyrB ATPase (Escherichia coli, UniProt P0AES4+P0AES6); test: ATPase assay: inhibition of GyrB ATPase activity, ammonium molybdate/malachite green phosphate detection; assay type: biochemical, E. coli
Procedure: Compounds were tested for inhibition of GyrB ATPase activity using an ammonium molybdate/malachite green-based phosphate detection assay (Lanzetta, P. A., L. J. Alvarez, P. S. Reinach, and O. A. Candia, 1979, 100: 95-97). Assays were performed in multiwell plates in 100 μl reactions containing: 50 mM TRIS buffer pH 7.5, 75 mM ammonium acetate, 5.5 mM magnesium chloride, 0.5 mM ethylenediaminetetraacetic acid, 5% glycerol, 1 mM 1,4-dithio-DL-threitol, 200 nM bovine serum albumin, 16 μg/ml sheared salmon sperm DNA, 4 nM E. coli GyrA, 4 nM E. coli GyrB, 250 μM ATP, and compound in dimethylsulfoxide. Reactions were quenched with 150 μL of ammonium molybdate/malachite green detection reagent containing 1.2 mM malachite green hydrochloride, 8.5 mM ammonium molybdate tetrahydrate, and 1 M hydrochloric acid. Plates were read in an absorbance plate reader at 625 nm and percent inhibition values were calculated using dimethylsulfoxide (2%)-containing reactions as 0% inhibition and novobiocin-containing (2 μM) reactions as 100% inhibition controls. Compound potency was based on IC50 measurements determined from reactions performed in the presence of 10 different compound concentrations.

DNA gyrase = DNA gyrase (Escherichia coli, UniProt P0AES4+P0AES6); test: Supercoiling assay: inhibition of Escherichia coli DNA supercoiling activity; assay type: biochemical
Procedure: Compounds were tested for inhibition of Escherichia coli DNA supercoiling activity as follows. Assays were performed in polypropylene multiwell plates in 50 μl reactions containing 35 mM Tris-HCl (pH 7.5), 24 mM KCl, 4 mM MgCl2, 2 mM dithiothreitol, 1.8 mM spermidine, 5% (v/v) glycerol, 200 nM bovine serum albumin, 1.25% (v/v) DMSO, 3 mM ATP, 10 ng/ml relaxed pBR322 plasmid, 0.6 nM DNA gyrase, and test compound. Reactions were quenched after 1 hour by the addition of 10 μl of 30% (w/v) Ficoll-400, 10 mM EDTA, and 5% sodium dodecyl sulfate. Twenty-five μl of each sample was loaded onto a 0.8% (w/v) agarose gel and electrophoresed. The gel and gel buffer contained 1×TBE buffer (89 mM Tris base, 89 mM boric acid, and 2 mM EDTA at pH 8.3). After electrophoresis for 3 hours at 70V, the gel was stained with ethidium bromide and visualized by excitation with ultraviolet light. The fluorescence intensity of the most supercoiled plasmid band was used to measure gyrase activity. Compound potency was based IC50 measurements determined from reactions performed with eight 2-fold serial dilutions of each compound and a control without compound.

[1] = 4 nM E. coli GyrA, 4 nM E. coli GyrB, 250 μM ATP, read-out: gyrase ATPase (converted)

Sequence of GyrB ATPase (P0AES4 whole entry, one chain of several): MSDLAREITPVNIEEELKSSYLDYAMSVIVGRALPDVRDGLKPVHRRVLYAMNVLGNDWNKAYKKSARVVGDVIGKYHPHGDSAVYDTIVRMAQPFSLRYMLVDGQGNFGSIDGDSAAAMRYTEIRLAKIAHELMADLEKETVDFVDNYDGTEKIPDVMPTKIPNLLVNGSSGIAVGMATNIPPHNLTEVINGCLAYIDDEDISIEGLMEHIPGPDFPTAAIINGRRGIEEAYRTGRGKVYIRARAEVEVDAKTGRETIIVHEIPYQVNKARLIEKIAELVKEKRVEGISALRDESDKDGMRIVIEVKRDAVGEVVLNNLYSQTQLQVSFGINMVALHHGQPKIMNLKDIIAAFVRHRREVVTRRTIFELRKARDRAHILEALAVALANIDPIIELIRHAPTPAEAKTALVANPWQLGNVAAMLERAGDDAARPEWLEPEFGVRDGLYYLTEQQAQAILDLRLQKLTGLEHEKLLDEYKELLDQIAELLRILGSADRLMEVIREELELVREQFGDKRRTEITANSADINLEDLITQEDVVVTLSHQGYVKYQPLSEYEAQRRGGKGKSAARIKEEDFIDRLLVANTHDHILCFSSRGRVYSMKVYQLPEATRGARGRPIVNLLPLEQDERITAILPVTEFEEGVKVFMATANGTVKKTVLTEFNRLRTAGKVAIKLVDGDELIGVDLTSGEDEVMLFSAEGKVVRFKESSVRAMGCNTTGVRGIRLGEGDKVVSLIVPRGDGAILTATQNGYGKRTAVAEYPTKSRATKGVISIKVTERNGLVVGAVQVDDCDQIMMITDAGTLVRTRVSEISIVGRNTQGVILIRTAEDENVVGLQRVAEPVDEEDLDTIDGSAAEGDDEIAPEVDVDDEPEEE
Sequence of DNA gyrase (P0AES4 whole entry, one chain of several): as above

Compound `O=C(O)[C@@H]1CN(CCn2c(=O)ccc3c(F)cc(F)cc32)CC[C@H]1NC/C=C/c1cc(F)ccc1F` (as salt: hydrochloride) [Example 17, (3R,4R)-1-[2-(5,7-Difluoro-2-oxoquinolin-1(2H)-yl)ethyl]-4-{[(2E)-3-(2,5-difluorophenyl)prop-2-en-1-yl]amino}piperidine-3-carboxylic acid] has a melting point of over 205 °C.

`O=C1COc2ccc(CNC3CCN(CCn4c(=O)ccc5ccc(F)c(F)c54)CC3)nc2N1` (as salt: salt) [Example 7, 6-[({1-[2-(7,8-Difluoro-2-oxoquinolin-1(2H)-yl)ethyl]piperidin-4-yl}amino)methyl]-2H-pyrido[3,2-b][1,4]oxazin-3(4H)-one] showed a melting point of 158 to 170 °C.

In the case of `N#Cc1ccc2ccc(=O)n(CCN3CCC(NCc4ccc5c(n4)NC(=O)CO5)CC3)c2c1` [Example 6, 2-Oxo-1-[2-(4-{[(3-oxo-3,4-dihydro-2H-pyrido[3,2-b][1,4]oxazin-6-yl)methyl]amino}piperidin-1-yl)ethyl]-1,2-dihydroquinoline-7-carbonitrile], the melting point is reported as 212 °C.

`O=C1COc2ccc(CNC3CCN(CCn4c(=O)ccc5c(F)cc(F)cc54)CC3)nc2N1` (as salt: salt) [Example 8, 6-[({1-[2-(5,7-Difluoro-2-oxoquinolin-1(2H)-yl)ethyl]piperidin-4-yl}amino)methyl]-2H-pyrido[3,2-b][1,4]oxazin-3(4H)-one] showed a melting point of 170 to 180 °C.

With `N#Cc1ccc2ccc(=O)n(CCN3CCC(NCc4cc5c(cn4)OCCO5)CC3)c2c1` [Example 5, 1-(2-{4-[(2,3-Dihydro[1,4]dioxino[2,3-c]pyridin-7-ylmethyl)amino]piperidin-1-yl}ethyl)-2-oxo-1,2-dihydroquinoline-7-carbonitrile] the S. pneumo (Streptococcus pneumoniae) was 0.12 microgram/ml, the MIC (Escherichia coli) was 0.5 µg/mL (≈ 1.12 µM) and the IC50 (GyrB ATPase; [1]) was 157 nM. The IC50 (DNA gyrase; 0.6 nM DNA gyrase, relaxed pBR322 plasmid, 1 hour, read-out: gyrase supercoiling (converted)) was 114 nM.

`COc1ccc2c(=O)ccn(CCN3CCC(NCc4cc5c(cn4)OCCO5)CC3)c2c1` (as salt: hydrochloride) [Example 2, 1-(2-{4-[(2,3-Dihydro[1,4]dioxino[2,3-c]pyridin-7-ylmethyl)amino]piperidin-1-yl}ethyl)-7-methoxyquinolin-4(1H)-one] showed a melting point of 260 °C.

`Cn1c(=O)c2ccc(F)cc2n(CCN2CCC(NCc3ccc4c(n3)NC(=O)CO4)CC2)c1=O` [Example 66, 7-Fluoro-3-methyl-1-[2-(4-{[(3-oxo-3,4-dihydro-2H-pyrido[3,2-b][1,4]oxazin-6-yl)methyl]amino}piperidin-1-yl)ethyl]quinazoline-2,4(1H,3H)-dione] gave a S. pneumo (Streptococcus pneumoniae) of 8 microgram/ml, an MIC (Escherichia coli) of 4 µg/mL (≈ 8.29 µM) and an IC50 (GyrB ATPase; [1]) of 622 nM.

In the case of `O=C1COc2ccc(F)cc2N1CCN1CCC(NCc2cc3c(cn2)OCCO3)CC1` [Example 26, 4-(2-{4-[(2,3-Dihydro[1,4]dioxino[2,3-c]pyridin-7-ylmethyl)amino]piperidin-1-yl}ethyl)-6-fluoro-2H-1,4-benzoxazin-3(4H)-one], the S. pneumo (Streptococcus pneumoniae) is reported as 0.25 microgram/ml, the MIC (Escherichia coli) is reported as 1 µg/mL (≈ 2.26 µM) and the IC50 (DNA gyrase) is reported as 949 nM.

In the case of `O=C1COc2ccccc2N1CCN1CCC(NCc2cc3c(cn2)OCCO3)CC1` [Example 49, 4-(2-{4-[(2,3-Dihydro[1,4]dioxino[2,3-c]pyridin-7-ylmethyl)amino]piperidin-1-yl}ethyl)-2H-1,4-benzoxazin-3(4H)-one], the S. pneumo (Streptococcus pneumoniae) is reported as 4 microgram/ml, the MIC (Escherichia coli) is reported as 8 µg/mL (≈ 18.8 µM) and the IC50 (DNA gyrase) is reported as 7070 nM.

`O=C(O)[C@H]1CN(CCn2c(=O)ccc3c(F)cc(F)cc32)CC[C@H]1NC/C=C/c1cc(F)ccc1F` (as salt: hydrochloride) [Example 13, (3S,4R)-1-[2-(5,7-Difluoro-2-oxoquinolin-1(2H)-yl)ethyl]-4-{[(2E)-3-(2,5-difluorophenyl)prop-2-en-1-yl]amino}piperidine-3-carboxylic acid] gave a melting point of 150 to 180 °C.

`N#Cc1ccc2c(c1)N(CCN1CCC(NC/C=C/c3cc(F)ccc3F)CC1)C(=O)CO2` [Example 37, 4-[2-(4-{[(2E)-3-(2,5-Difluorophenyl)prop-2-en-1-yl]amino}piperidin-1-yl)ethyl]-3-oxo-3,4-dihydro-2H-1,4-benzoxazine-6-carbonitrile] gave a S. pneumo (Streptococcus pneumoniae) of 0.06 microgram/ml, an MIC (Escherichia coli) of 0.25 µg/mL (≈ 0.552 µM) and an IC50 (GyrB ATPase) of 17.7 nM.

With `O=c1ccc2ccc(F)cc2n1CCN1CCC(NCc2cc3c(cn2)OCCO3)CC1` (as salt: HCl) [Example 10, 1-(2-{4-[(2,3-Dihydro[1,4]dioxino[2,3-c]pyridin-7-ylmethyl)amino]piperidin-1-yl}ethyl)-7-fluoroquinolin-2(1H)-one] the melting point was > 275 °C (dec.).

In the case of `O=C(O)[C@@H]1CN(CCn2c(=O)ccc3c(F)cc(F)cc32)CC[C@H]1NCc1cc2c(cn1)OCCO2` (as salt: hydrochloride) [Example 16, (3R,4R)-1-[2-(5,7-Difluoro-2-oxoquinolin-1(2H)-yl)ethyl]-4-[(2,3-dihydro[1,4]dioxino[2,3-c]pyridin-7-ylmethyl)amino]piperidine-3-carboxylic acid], the melting point is reported as over 190 °C.

`O=C1COc2ccc(CNC3CCN(CCn4c(=O)ccc5ccc(F)cc54)CC3)nc2N1` (as salt: salt) [Example 9, 6-[({1-[2-(7-Fluoro-2-oxoquinolin-1(2H)-yl)ethyl]piperidin-4-yl}amino)methyl]-2H-pyrido[3,2-b][1,4]oxazin-3(4H)-one] gave a melting point of 150 to 155 °C.

With `COC(=O)c1cc2ccc(OC)cc2n1CCN1CCC(NCc2cc3c(cn2)OCCO3)CC1` [Example 3, Methyl 1-(2-{4-[(2,3-dihydro[1,4]dioxino[2,3-c]pyridin-7-ylmethyl)amino]piperidin-1-yl}ethyl)-6-methoxy-1H-indole-2-carboxylate] the melting point was 130 °C.

Reference: US7875715B2, “Compounds for the treatment of multi-drug resistant bacterial infections” (AstraZeneca AB, priority 2005, dated 2011)
